# Structures can show the parent of a compound that is named as a salt.
# Molecular target: T1, Nav1.7 (or SCN9A) channel (Homo sapiens, UniProt Q15858)
# T1 construct: expressed in transfected cells; host or cells: HEK cells, stably transfected, G-418 selected
# Test: Nav1.7 (hSCN9A) whole-cell electrophysiology, PatchXpress platform
# Assay type: cell-based
# Conditions: HEK cells stably expressing hSCN9A, held at V1/2 of inactivation, calculated from single point % inhibition, read-out: Nav1.7 EIC50 (estimated IC-50)
# Experimental: The ability of the compounds of list (I) to block the Nav1.7 (or SCN9A) channel was measured using the assay described below.
# Human Embryonic Kidney (HEK) cells were transfected with an hSCN9A construct using lipofectamine reagent (Invitrogen), using standard techniques. Cells stably expressing the hSCN9A constructs were identified by their resistance to G-418 (400 μg/ml). Clones were screened for expression using the whole-cell voltage-clamp technique.
# HEK cells stably transfected with hSCN9A were maintained in DMEM medium supplemented with 10% heat-inactivated fetal bovine serum and 400 μg/ml G-418 in an incubator at 37° C. with a humidified atmosphere of 10% CO2. For HTS, cells were harvested from flasks by trypsinization and replated in an appropriate multi-well plate (typically 96 or 384 wells/plate) such that confluence would be achieved within 24 hours of plating. For electrophysiological studies, cells were removed from the culture flask by brief trypsinization and re-plated at low density onto glass cover slips. Cells were typically used for electrophysiological experiments within 24 to 72 hours after plating.
# Cover slips containing HEK cells expressing hSCN9A were placed in a bath on the stage of an inverted microscope and perfused (approximately 1 ml/minutes) with extracellular solution of the following composition: 138 mM NaCl, 2 mM CaCl2, 5.4 mM KCl, 1 mM MgCl2, 10 mM glucose, and 10 mM HEPES, pH 7.4, with NaOH. […] The osmolarity of the extracellular and intracellular solutions was 300 mOsm/kg and 295 mOsm/kg, respectively. All recordings were made at room temperature (22-24° C.) using AXOPATCH 200B amplifiers and PCLAMP software (Axon Instruments, Burlingame, Calif.).
# hSCN9A currents in HEK cells were measured using the whole-cell configuration of the patch-clamp technique (Hamill et al., 1981). Uncompensated series resistance was typically 2 to 5 mega ohms and >85% series resistance compensation was routinely achieved. As a result, voltage errors were negligible and no correction was applied. Current records were acquired at 20 to 50 KHz and filtered at 5 to 10 KHz.
# HEK cells stably transfected with hSCN9A were viewed under Hoffman contrast optics and placed in front of an array of flow pipes emitting either control or compound-containing extracellular solutions. All compounds were dissolved in dimethyl sulfoxide to make 10 mM stock solutions, which were then diluted into extracellular solution to attain the final concentrations desired. […] The voltage-dependence of inactivation was determined by applying a series of depolarizing prepulses (8 sec long in 10 mV increments) from a negative holding potential. The voltage was then immediately stepped to 0 mV to assess the magnitude of the sodium current. Currents elicited at 0 mV were plotted as a function of prepulse potential to allow estimation of the voltage at which 50% of the channels were inactivated (midpoint of inactivation or V1/2). Compounds were tested for their ability to inhibit hSCN9A sodium channels by activating the channel with a 20 msec voltage step to 0 mV following an 8 second conditioning prepulse to the empirically determined V1/2. Compound effect (% inhibition) was determined by difference in current amplitude before and after application of test compounds. For ease of comparison, “estimated IC-50” (EIC50) values were calculated from single point electrophysiology data by the following equation, (tested concentration, uM)×(100−% inhibition/% inhibition). Inhibition values <20% and >80% were excluded from the calculation.
# Electrophysiological assays were conducted with PatchXpress 7000 hardware and associated software (Molecular Devices Corp). All assay buffers and solutions were identical to those used in conventional whole-cell voltage clamp experiments described above. hSCN9A cells were grown as above to 50%-80% confluency and harvested by trypsinization. […]
# T1 sequence (Q15858 whole entry): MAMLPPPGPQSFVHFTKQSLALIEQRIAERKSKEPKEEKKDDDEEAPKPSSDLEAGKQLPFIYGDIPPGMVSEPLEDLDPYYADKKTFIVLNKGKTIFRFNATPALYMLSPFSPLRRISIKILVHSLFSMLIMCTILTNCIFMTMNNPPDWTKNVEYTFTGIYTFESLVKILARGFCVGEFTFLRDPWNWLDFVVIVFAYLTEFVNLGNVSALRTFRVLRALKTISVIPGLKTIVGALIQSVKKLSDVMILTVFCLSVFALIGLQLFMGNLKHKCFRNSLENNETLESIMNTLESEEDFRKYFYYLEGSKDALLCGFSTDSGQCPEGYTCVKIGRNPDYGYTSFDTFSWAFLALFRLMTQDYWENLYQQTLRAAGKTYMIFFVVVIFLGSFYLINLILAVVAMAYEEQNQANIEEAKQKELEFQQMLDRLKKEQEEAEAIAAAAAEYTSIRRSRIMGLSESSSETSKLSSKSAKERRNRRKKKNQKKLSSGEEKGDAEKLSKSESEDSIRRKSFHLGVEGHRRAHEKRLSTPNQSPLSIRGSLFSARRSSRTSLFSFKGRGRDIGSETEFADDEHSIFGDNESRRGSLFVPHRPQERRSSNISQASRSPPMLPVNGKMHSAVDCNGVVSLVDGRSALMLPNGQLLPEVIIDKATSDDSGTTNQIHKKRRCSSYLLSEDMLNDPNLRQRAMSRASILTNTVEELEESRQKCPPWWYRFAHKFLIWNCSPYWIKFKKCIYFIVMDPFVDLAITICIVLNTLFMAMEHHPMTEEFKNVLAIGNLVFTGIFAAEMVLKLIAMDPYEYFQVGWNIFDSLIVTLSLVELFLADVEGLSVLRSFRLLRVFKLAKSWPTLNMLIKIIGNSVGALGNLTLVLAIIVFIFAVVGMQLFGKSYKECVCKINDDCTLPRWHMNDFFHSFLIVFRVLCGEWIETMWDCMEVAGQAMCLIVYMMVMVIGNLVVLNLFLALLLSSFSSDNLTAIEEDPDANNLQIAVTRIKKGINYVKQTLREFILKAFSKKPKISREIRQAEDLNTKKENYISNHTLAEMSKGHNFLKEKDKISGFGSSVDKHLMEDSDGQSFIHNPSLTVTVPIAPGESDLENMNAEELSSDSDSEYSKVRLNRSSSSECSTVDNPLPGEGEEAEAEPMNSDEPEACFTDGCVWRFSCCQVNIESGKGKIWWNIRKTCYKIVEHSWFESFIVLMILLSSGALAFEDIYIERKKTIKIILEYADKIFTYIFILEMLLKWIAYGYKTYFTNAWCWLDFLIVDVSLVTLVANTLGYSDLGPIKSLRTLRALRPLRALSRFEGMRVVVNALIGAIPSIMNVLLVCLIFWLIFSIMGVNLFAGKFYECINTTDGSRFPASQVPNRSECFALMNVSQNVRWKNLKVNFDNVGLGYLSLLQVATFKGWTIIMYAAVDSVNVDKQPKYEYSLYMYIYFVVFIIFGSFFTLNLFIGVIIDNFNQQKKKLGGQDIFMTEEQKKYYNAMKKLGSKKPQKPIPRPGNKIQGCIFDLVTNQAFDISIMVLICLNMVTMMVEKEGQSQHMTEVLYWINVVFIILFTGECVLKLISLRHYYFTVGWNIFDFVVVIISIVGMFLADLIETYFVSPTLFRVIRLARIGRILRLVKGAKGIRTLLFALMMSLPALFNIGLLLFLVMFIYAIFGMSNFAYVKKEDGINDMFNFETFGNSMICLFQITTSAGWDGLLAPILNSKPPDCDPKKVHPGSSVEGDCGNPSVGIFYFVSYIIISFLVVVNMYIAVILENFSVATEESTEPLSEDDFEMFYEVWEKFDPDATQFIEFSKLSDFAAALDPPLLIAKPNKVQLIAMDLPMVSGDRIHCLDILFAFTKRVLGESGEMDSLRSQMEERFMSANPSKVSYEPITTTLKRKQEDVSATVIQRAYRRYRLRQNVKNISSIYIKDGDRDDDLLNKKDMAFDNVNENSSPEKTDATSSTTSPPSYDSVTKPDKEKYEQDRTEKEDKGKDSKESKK
row,Compound,IC50
1,"O=S(=O)(Nc1cscn1)c1cc(Cl)c(Oc2ccc(Cl)cc2-c2ccnc(N3CCNCC3)n2)cc1F [Example 1, 5-Chloro-4-[4-chloro-2-(2-piperazin-1-ylpyrimidin-4-yl)phenoxy]-2-fluoro-N-1,3-thiazol-4-ylbenzenesulfonamide trifluoroacetate]",0.0067 µM
2,"O=S(=O)(Nc1nncs1)c1cc(Cl)c(Oc2ccc(Cl)cc2-c2ccnc(N3CCNCC3)n2)cc1F [Example 2, 5-Chloro-4-[4-chloro-2-(2-piperazin-1-ylpyrimidin-4-yl)phenoxy]-2-fluoro-N-1,3,4-thiadiazol-2-ylbenzenesulfonamide trifluoroacetate]",0.005 µM
3,"O=S(=O)(Nc1cscn1)c1cc(Cl)c(Oc2cc(F)c(C(F)(F)F)cc2-c2ccnnc2)cc1F [Example 3, 5-Chloro-2-fluoro-4-[5-fluoro-2-pyridazin-4-yl-4-(trifluoromethyl)phenoxy]-N-1,3-thiazol-4-ylbenzenesulfonamide]",0.018 µM
4,"O=S(=O)(Nc1cscn1)c1cc(Cl)c(Oc2cc(C(F)(F)F)c(F)cc2-c2ccnnc2)cc1F [Example 4, 5-Chloro-2-fluoro-4-[4-fluoro-2-pyridazin-4-yl-5-(trifluoromethyl)phenoxy]-N-1,3-thiazol-4-ylbenzenesulfonamide bis(trifluoroacetate)]",0.0275 µM
5,"Nc1cc(-c2cc(Cl)ccc2Oc2cc(F)c(S(=O)(=O)Nc3ncc(F)cn3)cc2Cl)ccn1 [Example 5, 4-[2-(2-Aminopyridin-4-yl)-4-chlorophenoxy]-5-chloro-2-fluoro-N-(5-fluoropyrimidin-2-yl)benzenesulfonamide dihydrochloride]",0.0118 µM
6,"Nc1cc(-c2cc(C(F)(F)F)ccc2Oc2cc(F)c(S(=O)(=O)Nc3ncc(F)cn3)cc2Cl)ccn1 [Example 6, 4-[2-(2-Aminopyridin-4-yl)-4-(trifluoromethyl)phenoxy]-5-chloro-2-fluoro-N-(5-fluoropyrimidin-2-yl)benzenesulfonamide 4-methylbenzenesulfonate]",0.0085 µM
7,"Nc1cc(-c2cc(F)ccc2Oc2cc(F)c(S(=O)(=O)Nc3cscn3)cc2Cl)ccn1 [Example 7, 4-[2-(2-Aminopyridin-4-yl)-4-fluorophenoxy]-5-chloro-2-fluoro-N-1,3-thiazol-4-ylbenzenesulfonamide trifluoroacetate]",0.0147 µM
8,"Nc1n[nH]cc1-c1cc(OC(F)(F)F)ccc1Oc1cc(F)c(S(=O)(=O)Nc2cscn2)cc1Cl [Example 8, 4-[2-(3-Amino-1H-pyrazol-4-yl)-4-(trifluoromethoxy)phenoxy]-5-chloro-2-fluoro-N-1,3-thiazol-4-ylbenzenesulfonamide dihydrochloride]",0.0099 µM
9,"Nc1cc(-c2cc(Cl)ccc2Oc2ccc(S(=O)(=O)Nc3nncs3)cc2Cl)ccn1 [Example 9, 4-[2-(2-Aminopyridin-4-yl)-4-chlorophenoxy]-3-chloro-N-1,3,4-thiadiazol-2-ylbenzenesulfonamide trifluoroacetate]",0.024 µM
10,"Nc1cc(-c2cc(Cl)ccc2Oc2cc(F)c(S(=O)(=O)Nc3cscn3)cc2Cl)ccn1 [Example 10, 4-[2-(2-Aminopyridin-4-yl)-4-chlorophenoxy]-5-chloro-2-fluoro-N-1,3-thiazol-4-ylbenzenesulfonamide trifluoroacetate]",0.0108 µM
11,"Nc1[nH]ncc1-c1cc(F)ccc1Oc1cc(F)c(S(=O)(=O)Nc2cscn2)cc1Cl [Example 11, 4-[2-(5-Amino-1H-pyrazol-4-yl)-4-fluorophenoxy]-5-chloro-2-fluoro-N-1,3-thiazol-4-ylbenzenesulfonamide trifluoroacetate]",0.0166 µM
12,"O=S(=O)(Nc1cscn1)c1cc(Cl)c(Oc2ccc(OC(F)(F)F)cc2-c2ccnnc2)cc1F [Example 12, 5-Chloro-2-fluoro-4-[2-pyridazin-4-yl-4-(trifluoromethoxy)phenoxy]-N-1,3-thiazol-4-ylbenzenesulfonamide trifluoroacetate]",0.0146 µM
13,O=S(=O)(Nc1nncs1)c1cc(Cl)c(Oc2ccc(C(F)(F)F)cc2-c2ccnn2C2CNC2)cc1F [Example 13],0.0011 µM
14,"CN1CC(n2nccc2-c2cc(C(F)(F)F)ccc2Oc2cc(F)c(S(=O)(=O)Nc3nncs3)cc2Cl)C1 [Example 14, 5-Chloro-2-fluoro-4-{4-trifluoromethyl-2-[1-(1-methylazetidin-3-yl)-1H-pyrazol-5-yl]phenoxy}-N-1,3,4-thiadiazol-ylbenzenesulfonamide]",0.0026 µM
15,"Cc1nnccc1-c1cc(C(F)(F)F)ccc1Oc1ccc(S(=O)(=O)Nc2ncns2)cc1C#N [Example 15, 3-Cyano-4-[2-(3-methylpyridazin-4-yl)-4-(trifluoromethyl)phenoxy]-N-1,2,4-thiadiazol-5-ylbenzenesulfonamide]",0.0116 µM
16,"Cc1cc(S(=O)(=O)Nc2ncns2)ccc1Oc1ccc(C(F)(F)F)cc1-c1ccnnc1 [Example 16, 3-Methyl-4-[2-pyridazin-4-yl-4-(trifluoromethyl)phenoxy]-N-1,2,4-thiadiazol-5-ylbenzenesulfonamide]",0.0032 µM
17,"O=S(=O)(Nc1cscn1)c1cc(F)c(Oc2ccc(Cl)cc2-c2ccnc(N3CCNCC3)n2)cc1F [Example 17, 4-[4-chloro-2-(2-piperazin-1-ylpyrimidin-4-yl)phenoxy]2,5-difluoro-N-1,3-thiazol-4-ylbenzenesulfonamide trifluoroacetate]",0.01 µM
